Measurements published in patent publication US9169254B2, “Spiroimidazolone derivative” (Chugai Seiyaku Kabushiki Kaisha, priority 2009, dated 2015).

What follows are molecules tested against T1, human PTH1 receptor (Homo sapiens, UniProt Q03431) (assay: In vitro cAMP signal activity in HKRK-B7 cells (LLC-PK1 cells overexpressing the human PTH1 receptor)). Conditions: HKRK-B7 cells; compound at 1×10^−3 M; cAMP produced as percentage of that produced by hPTH(1-34) at 100 nM.
T1 sequence (Q03431 27-593): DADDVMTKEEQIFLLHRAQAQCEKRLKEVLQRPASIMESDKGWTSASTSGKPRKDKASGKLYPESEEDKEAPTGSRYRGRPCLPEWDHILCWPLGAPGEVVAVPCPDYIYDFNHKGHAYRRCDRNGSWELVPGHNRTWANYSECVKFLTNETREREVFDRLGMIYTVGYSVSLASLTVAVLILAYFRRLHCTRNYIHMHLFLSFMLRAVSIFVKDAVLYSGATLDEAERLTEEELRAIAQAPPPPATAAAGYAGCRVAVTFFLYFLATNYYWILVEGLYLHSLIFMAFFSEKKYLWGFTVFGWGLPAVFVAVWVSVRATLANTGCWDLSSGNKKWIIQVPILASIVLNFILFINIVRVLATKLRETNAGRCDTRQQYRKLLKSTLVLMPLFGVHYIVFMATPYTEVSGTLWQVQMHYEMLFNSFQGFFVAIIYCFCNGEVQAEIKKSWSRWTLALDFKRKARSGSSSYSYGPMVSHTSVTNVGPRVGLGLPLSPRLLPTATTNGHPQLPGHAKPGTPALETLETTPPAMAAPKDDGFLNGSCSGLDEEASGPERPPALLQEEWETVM
Type: cell-based

SMILES	cAMP production activity (%)
Cc1cc(S(N)(=O)=O)ccc1/C=C/S(=O)(=O)N1CCC2(CC1)N=C(c1cccc(C(F)(F)F)c1)NC2=O [Compound 213, 3-methyl-4-{(E)-2-[4-oxo-2-(3-trifluoromethyl-phenyl)-1,3,8-triaza-spiro[4.5]dec-1-ene-8-sulfonyl]-vinyl}-benzenesulfonamide]	74
CC(=O)Nc1ccc(/C=C/S(=O)(=O)N2CCC3(CC2)N=C(c2cccc(C(F)(F)F)c2)NC3=O)c(C)c1 [Compound 215, N-(3-Methyl-4-{(E)-2-[4-oxo-2-(3-trifluoromethyl-phenyl)-1,3,8-triaza-spiro[4.5]dec-1-ene-8-sulfonyl]-vinyl}-phenyl)-acetamide]	81
Cc1cc(C(=O)N2CCN(C)CC2)ccc1/C=C/S(=O)(=O)N1CCC2(CC1)N=C(c1cccc(C(F)(F)F)c1)NC2=O [Compound 216, 8-{(E)-2-[2-methyl-4-(4-methyl-piperazine-1-carbonyl)-phenyl]-ethenesulfonyl}-2-(3-trifluoromethyl-phenyl)-1,3,8-triaza-spiro[4.5]dec-1-en-4-one]	84
Cc1cc(S(=O)(=O)NCC(F)(F)F)ccc1/C=C/S(=O)(=O)N1CCC2(CC1)N=C(c1cccc(C(F)(F)F)c1)NC2=O [Compound 217, 3-methyl-4-{(E)-2-[4-oxo-2-(3-trifluoromethyl-phenyl)-1,3,8-triaza-spiro[4.5]dec-1-ene-8-sulfonyl]-vinyl}-N-(2,2,2-trifluoro-ethyl)-benzenesulfonamide]	41
Cc1cc(S(=O)(=O)NCCN2CCOCC2)ccc1/C=C/S(=O)(=O)N1CCC2(CC1)N=C(c1cccc(C(F)(F)F)c1)NC2=O [Compound 218, 3-methyl-N-(2-morpholin-4-yl-ethyl)-4-{(E)-2-[4-oxo-2-(3-trifluoromethyl-phenyl)-1,3,8-triaza-spiro[4.5]dec-1-ene-8-sulfonyl]-vinyl}-benzenesulfonamide]	72
Cc1cc(S(=O)(=O)Nc2cccnc2)ccc1/C=C/S(=O)(=O)N1CCC2(CC1)N=C(c1cccc(C(F)(F)F)c1)NC2=O [Compound 219, 3-methyl-4-{(E)-2-[4-oxo-2-(3-trifluoromethyl-phenyl)-1,3,8-triaza-spiro[4.5]dec-1-ene-8-sulfonyl]-vinyl}-N-pyridin-3-yl-benzenesulfonamide]	60
Cc1cc(N2C[C@H](O)CC2=O)ccc1/C=C/S(=O)(=O)N1CCC2(CC1)N=C(c1cccc(C(F)(F)F)c1)NC2=O [Compound 220, 8-{(E)-2-[4-((R)-4-hydroxy-2-oxo-pyrrolidin-1-yl)-2-methyl-phenyl]-ethenesulfonyl}-2-(3-trifluoromethyl-phenyl)-1,3,8-triaza-spiro[4.5]dec-1-en-4-one]	80
Cc1cc(N2C[C@H](CO)OC2=O)ccc1/C=C/S(=O)(=O)N1CCC2(CC1)N=C(c1cccc(C(F)(F)F)c1)NC2=O [Compound 222, 8-{(E)-2-[4-((R)-5-hydroxymethyl-2-oxo-oxazolidin-3-yl)-2-methyl-phenyl]-ethenesulfonyl}-2-(3-trifluoromethyl-phenyl)-1,3,8-triaza-spiro[4.5]dec-1-en-4-one]	43
Cc1cc(NS(C)(=O)=O)cc(C)c1/C=C/S(=O)(=O)N1CCC2(CC1)N=C(c1cccc(OC(F)(F)F)c1)NC2=O [Compound 229, N-(3,5-dimethyl-4-{(E)-2-[4-oxo-2-(3-trifluoromethoxy-phenyl)-1,3,8-triaza-spiro[4.5]dec-1-ene-8-sulfonyl]-vinyl}-phenyl)-methanesulfonamide]	68
O=C1NC(c2cccc(OC(F)(F)F)c2)=NC12CCN(S(=O)(=O)/C=C/c1cc(Cl)c(OCCC(O)CO)cc1Cl)CC2 (stereo not drawn) [Compound 234, 8-{(E)-2-[2,5-dichloro-4-(3,4-dihydroxy-butoxy)-phenyl]-ethenesulfonyl}-2-(3-trifluoromethoxy-phenyl)-1,3,8-triaza-spiro[4.5]dec-1-en-4-one]	78
CC(=O)Nc1cc(C)c(/C=C/S(=O)(=O)N2CCC3(CC2)N=C(c2cccc(OC(F)(F)F)c2)NC3=O)c(C)c1 [Compound 238, N-(3,5-dimethyl-4-{(E)-2-[4-oxo-2-(3-trifluoromethoxy-phenyl)-1,3,8-triaza-spiro[4.5]dec-1-ene-8-sulfonyl]-vinyl}-phenyl)-acetamide]	90
CC(=O)N(C)c1cc(C)c(/C=C/S(=O)(=O)N2CCC3(CC2)N=C(c2cccc(OC(F)(F)F)c2)NC3=O)c(C)c1 [Compound 239, N-(3,5-dimethyl-4-{(E)-2-[4-oxo-2-(3-trifluoromethoxy-phenyl)-1,3,8-triaza-spiro[4.5]dec-1-ene-8-sulfonyl]-vinyl}-phenyl)-N-methyl-acetamide]	80

Results, then the molecule that gave them:

cAMP production activity (%)	SMILES
84	Cc1cc(C(=O)N(C)CCO)ccc1/C=C/S(=O)(=O)N1CCC2(CC1)N=C(c1cccc(C(F)(F)F)c1)NC2=O [Compound 214, N-(2-hydroxy-ethyl)-3,N-dimethyl-4-{(E)-2-[4-oxo-2-(3-trifluoromethyl-phenyl)-1,3,8-triaza-spiro[4.5]dec-1-ene-8-sulfonyl]-vinyl}-benzamide]
54	Cc1cc(S(=O)(=O)NCCCO)ccc1/C=C/S(=O)(=O)N1CCC2(CC1)N=C(c1cccc(OC(F)(F)F)c1)NC2=O [Compound 224, N-(3-Hydroxy-propyl)-3-methyl-4-{(E)-2-[4-oxo-2-(3-trifluoromethoxy-phenyl)-1,3,8-triaza-spiro[4.5]dec-1-ene-8-sulfonyl]-vinyl}-benzenesulfonamide]
47	CC(=O)N(C)c1ccc(C)c(/C=C/S(=O)(=O)N2CCC3(CC2)N=C(c2cccc(OC(F)(F)F)c2)NC3=O)c1 [Compound 225, N-methyl-N-(4-methyl-3-{(E)-2-[4-oxo-2-(3-trifluoromethoxy-phenyl)-1,3,8-triaza-spiro[4.5]dec-1-ene-8-sulfonyl]-vinyl}-phenyl)-acetamide]
83	Cc1c(O)cccc1/C=C/S(=O)(=O)N1CCC2(CC1)N=C(c1cccc(OC(F)(F)F)c1)NC2=O [Compound 226, 8-[(E)-2-(3-Hydroxy-2-methyl-phenyl)-ethenesulfonyl]-2-(3-trifluoromethoxy-phenyl)-1,3,8-triaza-spiro[4.5]dec-1-en-4-one]
87	Cc1ccc(O)cc1/C=C/S(=O)(=O)N1CCC2(CC1)N=C(c1cccc(OC(F)(F)F)c1)NC2=O [Compound 227, 8-[(E)-2-(5-hydroxy-2-methyl-phenyl)-ethenesulfonyl]-2-(3-trifluoromethoxy-phenyl)-1,3,8-triaza-spiro[4.5]dec-1-en-4-one]
66	Cc1cc(C(=O)N2CCC(O)CC2)ccc1/C=C/S(=O)(=O)N1CCC2(CC1)N=C(c1cccc(OC(F)(F)F)c1)NC2=O [Compound 230, 8-{(E)-2-[4-(4-hydroxy-piperidine-1-carbonyl)-2-methyl-phenyl]-ethenesulfonyl}-2-(3-trifluoromethoxy-phenyl)-1,3,8-triaza-spiro[4.5]dec-1-en-4-one]
96	Cc1cc(C(=O)N(C)C)ccc1/C=C/S(=O)(=O)N1CCC2(CC1)N=C(c1cccc(OC(F)(F)F)c1)NC2=O [Compound 231, 3,N,N-trimethyl-4-{(E)-2-[4-oxo-2-(3-trifluoromethoxy-phenyl)-1,3,8-triaza-spiro[4.5]dec-1-ene-8-sulfonyl]-vinyl}-benzamide]
69	CC(=O)N(CCO)c1ccc(/C=C/S(=O)(=O)N2CCC3(CC2)N=C(c2cccc(OC(F)(F)F)c2)NC3=O)c(C)c1 [Compound 232, N-(2-hydroxy-ethyl)-N-(3-methyl-4-{(E)-2-[4-oxo-2-(3-trifluoromethoxy-phenyl)-1,3,8-triaza-spiro[4.5]dec-1-ene-8-sulfonyl]-vinyl}-phenyl)-acetamide]
13	CN(C)C(=O)c1ccc(/C=C/S(=O)(=O)N2CCC3(CC2)N=C(c2cccc(OC(F)(F)F)c2)NC3=O)c(F)c1 [Compound 233, 3-fluoro-N,N-dimethyl-4-{(E)-2-[4-oxo-2-(3-trifluoromethoxy-phenyl)-1,3,8-triaza-spiro[4.5]dec-1-ene-8-sulfonyl]-vinyl}-benzamide]
49	Cc1cc(OCCCN(C)C)ccc1/C=C/S(=O)(=O)N1CCC2(CC1)N=C(c1cccc(OC(F)(F)F)c1)NC2=O [Compound 235, 8-{(E)-2-[4-(3-dimethylamino-propoxy)-2-methyl-phenyl]-ethenesulfonyl}-2-(3-trifluoromethoxy-phenyl)-1,3,8-triaza-spiro[4.5]dec-1-en-4-one]
40	CC(=O)N(C)c1cccc(/C=C/S(=O)(=O)N2CCC3(CC2)N=C(c2cccc(OC(F)(F)F)c2)NC3=O)c1C [Compound 236, N-methyl-N-(2-methyl-3-{(E)-2-[4-oxo-2-(3-trifluoromethoxy-phenyl)-1,3,8-triaza-spiro[4.5]dec-1-ene-8-sulfonyl]-vinyl}-phenyl)-acetamide]
74	CC(=O)N(C)c1ccc(/C=C/S(=O)(=O)N2CCC3(CC2)N=C(c2cccc(OC(F)(F)F)c2)NC3=O)c(C)c1 [Compound 237, N-methyl-N-(3-methyl-4-{(E)-2-[4-oxo-2-(3-trifluoromethoxy-phenyl)-1,3,8-triaza-spiro[4.5]dec-1-ene-8-sulfonyl]-vinyl}-phenyl)-acetamide]
